# Entries after “also recorded” stand apart in the source; their conditions may differ.
# How the values were obtained:
# AMPA receptor = test: [^3H]AMPA competition binding, rat forebrain membranes; settings: radioligand [^3H]-AMPA
# Kaïnate receptor = format: binding, rat
# [1] = molecular target: T1, Dopaminergic receptor (D1) (Rattus norvegicus, UniProt P18901); test: [^3H]SCH23390 competition binding, rat striatum membranes; settings: radioligand [^3H]-SCH23390
# T1 construct: from tissue; host or cells: Wistar rat brain synaptic membranes (striatum according to the earlier reading)
# T1 sequence (P18901 whole entry): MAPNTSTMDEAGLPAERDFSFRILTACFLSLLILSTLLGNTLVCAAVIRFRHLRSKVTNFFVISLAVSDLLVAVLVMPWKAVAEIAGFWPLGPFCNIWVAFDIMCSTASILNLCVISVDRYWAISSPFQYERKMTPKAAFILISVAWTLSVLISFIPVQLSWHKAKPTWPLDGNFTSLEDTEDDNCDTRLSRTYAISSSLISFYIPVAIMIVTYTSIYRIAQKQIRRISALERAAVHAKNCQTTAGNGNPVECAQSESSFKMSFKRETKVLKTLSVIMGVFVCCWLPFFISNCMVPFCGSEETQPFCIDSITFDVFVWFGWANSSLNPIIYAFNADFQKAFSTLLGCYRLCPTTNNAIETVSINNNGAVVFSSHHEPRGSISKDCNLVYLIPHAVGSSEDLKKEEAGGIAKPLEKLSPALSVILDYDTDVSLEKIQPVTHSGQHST
# [2] = molecular target: T2, Dopaminergic receptor (D2) (Rattus norvegicus, UniProt P61169); test: [^3H]raclopride competition binding, rat striatum membranes; settings: radioligand [^3H]-raclopride
# T2 construct: from tissue; host or cells: Wistar rat brain synaptic membranes (striatum according to the earlier reading)
# T2 sequence (P61169 whole entry): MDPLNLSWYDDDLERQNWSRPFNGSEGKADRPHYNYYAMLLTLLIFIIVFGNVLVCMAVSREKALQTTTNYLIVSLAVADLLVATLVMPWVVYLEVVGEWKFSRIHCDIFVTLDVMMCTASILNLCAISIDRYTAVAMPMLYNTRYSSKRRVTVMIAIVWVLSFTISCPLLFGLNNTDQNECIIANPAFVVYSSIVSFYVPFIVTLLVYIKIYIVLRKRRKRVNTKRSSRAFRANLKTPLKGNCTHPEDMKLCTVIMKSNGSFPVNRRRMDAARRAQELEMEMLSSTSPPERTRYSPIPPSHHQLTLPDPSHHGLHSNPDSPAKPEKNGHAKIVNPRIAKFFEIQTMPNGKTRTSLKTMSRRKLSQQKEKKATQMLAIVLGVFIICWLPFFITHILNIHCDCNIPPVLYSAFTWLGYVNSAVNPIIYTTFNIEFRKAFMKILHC
# [3] = molecular target: T3, NMDA receptor glycine site (Rattus norvegicus, UniProt P35439); test: [^3H]glycine competition binding, rat forebrain membranes; settings: radioligand [^3H]-glycine
# T3 construct: from tissue; host or cells: Wistar rat forebrain synaptic membranes
# NMDA PCP site = molecular target: T4, NMDA PCP site (Rattus norvegicus, UniProt P35439); test: [^3H]TCP radioligand competition binding on rat brain membranes; settings: for IC50: inhibition of [^3H]TCP binding
# T4 construct: from tissue; host or cells: Wistar rat hippocampus, frontal cortex or forebrain synaptic membranes
# [4] = read-out: IC50 ± SEM ([^19F]FNM inhibition)
substance,measurement,setting,value
Fluoroethylnormemantine [[^19F]FNM],IC50 ± SEM ([^19F]FNM inhibition),AMPA receptor,did not displace; also recorded: No inhibition
same,IC50 ± SEM ([^19F]FNM inhibition),Kaïnate receptor,did not displace; also recorded: No inhibition
same,IC50 ± SEM ([^19F]FNM inhibition),[1],did not displace
same,IC50,[1]; [4],> 1000 µM
same,IC50 ± SEM ([^19F]FNM inhibition),[2],did not displace
same,IC50,[2]; [4],> 1000 µM
same,IC50 ± SEM ([^19F]FNM inhibition),[3],did not displace; also recorded: No inhibition
same,selectivity for the NMDA receptor ion-channel compared to the other targets examined,NMDA PCP site; in the forebrain,at least sevenfold
same,IC50,NMDA PCP site; rat forebrain,13 ± 8.9 µM
same,IC50,NMDA PCP site; rat frontal cortex,80.8 ± 15.1 µM
same,IC50,NMDA PCP site; rat hippocampus,52.9 ± 9.7 µM

# Source: paper PMC10333392 (Molecular Imaging and Biology, 2023)
